What was measured:
[1] = test system: Tyrosine-protein kinase ABL1 (Homo sapiens), P00519 [F317I]; conditions: Compound concentration 1000.0 nM
[2] = target: Activin receptor type-1B (Homo sapiens) (UniProt P36896); conditions: Compound concentration 1000.0 nM
[3] = target: Serine/threonine-protein kinase BRSK2 (Homo sapiens) (UniProt Q8IWQ3); conditions: Compound concentration 1000.0 nM
[4] = target: Mitotic checkpoint serine/threonine-protein kinase BUB1 (Homo sapiens) (UniProt O43683); conditions: Compound concentration 1000.0 nM
[5] = target: Calcium/calmodulin-dependent protein kinase type II subunit delta (Homo sapiens) (UniProt Q13557); conditions: Compound concentration 1000.0 nM
Chain of Calcium/calmodulin-dependent protein kinase type II subunit delta (Homo sapiens) (Q13557 whole entry): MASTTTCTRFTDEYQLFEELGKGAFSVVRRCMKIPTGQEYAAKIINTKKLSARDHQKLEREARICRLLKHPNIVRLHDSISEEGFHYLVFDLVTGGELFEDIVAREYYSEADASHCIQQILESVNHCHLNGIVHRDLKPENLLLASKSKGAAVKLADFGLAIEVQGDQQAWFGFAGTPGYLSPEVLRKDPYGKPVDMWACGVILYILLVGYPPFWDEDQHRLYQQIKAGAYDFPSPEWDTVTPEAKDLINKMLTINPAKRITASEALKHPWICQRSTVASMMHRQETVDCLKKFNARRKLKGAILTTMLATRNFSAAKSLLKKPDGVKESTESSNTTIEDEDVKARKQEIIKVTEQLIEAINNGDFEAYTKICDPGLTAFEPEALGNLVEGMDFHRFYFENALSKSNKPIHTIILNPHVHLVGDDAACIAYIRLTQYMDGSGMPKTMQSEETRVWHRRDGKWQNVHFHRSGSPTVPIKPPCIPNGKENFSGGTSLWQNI

[6] = target: Calcium/calmodulin-dependent protein kinase type II subunit gamma (Homo sapiens) (UniProt Q13555); conditions: Compound concentration 1000.0 nM
[7] = target: Cyclin-dependent kinase 13 (Homo sapiens) (UniProt Q14004); conditions: Compound concentration 1000.0 nM
[8] = target: Cyclin-dependent kinase 4 (Homo sapiens) (UniProt P11802); conditions: Compound concentration 1000.0 nM
Chain of Cyclin-dependent kinase 4 (Homo sapiens) (P11802 whole entry): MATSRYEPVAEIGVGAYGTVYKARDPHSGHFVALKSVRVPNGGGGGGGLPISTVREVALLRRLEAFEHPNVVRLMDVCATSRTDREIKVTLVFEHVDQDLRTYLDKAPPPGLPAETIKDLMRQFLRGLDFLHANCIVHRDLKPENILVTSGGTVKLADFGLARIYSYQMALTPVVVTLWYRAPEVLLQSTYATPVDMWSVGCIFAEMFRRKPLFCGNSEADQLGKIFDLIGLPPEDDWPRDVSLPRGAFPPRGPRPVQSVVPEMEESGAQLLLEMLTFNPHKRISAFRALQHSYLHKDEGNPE

[9] = target: Macrophage colony-stimulating factor 1 receptor (Homo sapiens) (UniProt P07333); conditions: Compound concentration 1000.0 nM
[10] = target: Casein kinase I isoform alpha (Homo sapiens) (UniProt P48729); conditions: Compound concentration 1000.0 nM
Chain of Casein kinase I isoform alpha (Homo sapiens) (P48729 2-337 limits assumed): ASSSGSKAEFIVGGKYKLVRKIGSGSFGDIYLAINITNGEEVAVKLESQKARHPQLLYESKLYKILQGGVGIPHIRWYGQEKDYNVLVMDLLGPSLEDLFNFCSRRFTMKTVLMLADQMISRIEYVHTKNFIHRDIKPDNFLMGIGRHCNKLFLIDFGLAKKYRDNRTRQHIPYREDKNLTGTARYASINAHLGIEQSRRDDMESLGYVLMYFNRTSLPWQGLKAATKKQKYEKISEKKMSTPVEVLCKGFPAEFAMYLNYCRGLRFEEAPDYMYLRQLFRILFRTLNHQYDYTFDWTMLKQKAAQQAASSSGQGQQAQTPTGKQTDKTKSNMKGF

[11] = test system: Epidermal growth factor receptor (Homo sapiens), P00533 [L858R]; conditions: Compound concentration 1000.0 nM
[12] = target: Mitogen-activated protein kinase 6 (Homo sapiens) (UniProt Q16659); conditions: Compound concentration 1000.0 nM
[13] = test system: Receptor-type tyrosine-protein kinase FLT3 (Homo sapiens), P36888 [D835V]; conditions: Compound concentration 1000.0 nM
[14] = target: G protein-coupled receptor kinase 3 (Homo sapiens) (UniProt P35626); conditions: Compound concentration 1000.0 nM
[15] = target: Serine/threonine-protein kinase ICK (Homo sapiens) (UniProt Q9UPZ9); conditions: Compound concentration 1000.0 nM
[16] = target: Leucine-rich repeat serine/threonine-protein kinase 2 (Homo sapiens) (UniProt Q5S007); conditions: Compound concentration 1000.0 nM
[17] = target: Mitogen-activated protein kinase kinase kinase kinase 4 (Homo sapiens) (UniProt O95819); conditions: Compound concentration 1000.0 nM
[18] = target: MAP/microtubule affinity-regulating kinase 3 (Homo sapiens) (UniProt P27448); conditions: Compound concentration 1000.0 nM
Chain of MAP/microtubule affinity-regulating kinase 3 (Homo sapiens) (P27448 whole entry, looked up): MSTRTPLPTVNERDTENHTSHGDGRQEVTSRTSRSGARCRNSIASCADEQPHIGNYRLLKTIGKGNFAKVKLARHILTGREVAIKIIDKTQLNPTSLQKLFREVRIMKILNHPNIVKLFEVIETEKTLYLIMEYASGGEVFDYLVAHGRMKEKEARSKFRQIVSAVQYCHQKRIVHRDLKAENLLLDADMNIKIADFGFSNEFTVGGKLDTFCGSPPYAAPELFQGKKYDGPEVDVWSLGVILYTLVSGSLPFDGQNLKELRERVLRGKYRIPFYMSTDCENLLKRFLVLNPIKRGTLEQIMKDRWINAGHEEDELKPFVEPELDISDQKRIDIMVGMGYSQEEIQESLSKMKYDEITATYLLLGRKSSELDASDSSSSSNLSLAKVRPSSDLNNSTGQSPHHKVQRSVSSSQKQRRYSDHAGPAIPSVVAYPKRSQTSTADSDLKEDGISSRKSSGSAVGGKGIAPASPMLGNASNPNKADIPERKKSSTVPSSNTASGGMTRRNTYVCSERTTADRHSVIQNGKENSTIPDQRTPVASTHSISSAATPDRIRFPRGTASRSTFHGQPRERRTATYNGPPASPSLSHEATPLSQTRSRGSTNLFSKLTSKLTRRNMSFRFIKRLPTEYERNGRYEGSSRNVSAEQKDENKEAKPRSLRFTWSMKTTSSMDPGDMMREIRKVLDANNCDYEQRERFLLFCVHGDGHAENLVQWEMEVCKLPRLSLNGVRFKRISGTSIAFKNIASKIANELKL

[19] = target: Dual specificity mitogen-activated protein kinase kinase 7 (Homo sapiens) (UniProt O14733); conditions: Compound concentration 1000.0 nM
[20] = target: Mitogen-activated protein kinase kinase kinase 11 (Homo sapiens) (UniProt Q16584); conditions: Compound concentration 1000.0 nM
[21] = target: Mitogen-activated protein kinase kinase kinase 14 (Homo sapiens) (UniProt Q99558); conditions: Compound concentration 1000.0 nM
[22] = target: Mitogen-activated protein kinase 13 (Homo sapiens) (UniProt O15264); conditions: Compound concentration 1000.0 nM
[23] = target: Mitogen-activated protein kinase 12 (Homo sapiens) (UniProt P53778); conditions: Compound concentration 1000.0 nM
[24] = target: Calcium-dependent protein kinase 1 (Plasmodium falciparum) (UniProt P62344); conditions: Compound concentration 1000.0 nM
Chain of Calcium-dependent protein kinase 1 (Plasmodium falciparum) (P62344 2-524 limits assumed): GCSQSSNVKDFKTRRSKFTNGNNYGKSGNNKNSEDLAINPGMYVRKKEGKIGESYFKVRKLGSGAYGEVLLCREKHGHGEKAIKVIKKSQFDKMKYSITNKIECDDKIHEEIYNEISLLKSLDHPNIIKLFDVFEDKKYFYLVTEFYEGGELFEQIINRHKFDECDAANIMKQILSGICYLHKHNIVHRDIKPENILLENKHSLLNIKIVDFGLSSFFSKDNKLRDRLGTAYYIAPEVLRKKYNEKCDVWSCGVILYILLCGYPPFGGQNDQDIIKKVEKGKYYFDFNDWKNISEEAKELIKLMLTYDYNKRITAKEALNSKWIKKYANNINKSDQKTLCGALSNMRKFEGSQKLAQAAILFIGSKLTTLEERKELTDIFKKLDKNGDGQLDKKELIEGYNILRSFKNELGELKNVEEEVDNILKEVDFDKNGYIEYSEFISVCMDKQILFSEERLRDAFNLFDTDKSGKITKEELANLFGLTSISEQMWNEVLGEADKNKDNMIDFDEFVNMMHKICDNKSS

[25] = test system: Phosphatidylinositol 4,5-bisphosphate 3-kinase catalytic subunit alpha isoform (Homo sapiens), P42336 [E545A]; conditions: Compound concentration 1000.0 nM
Chain of Phosphatidylinositol 4,5-bisphosphate 3-kinase catalytic subunit alpha isoform (Homo sapiens), P42336 [E545A] (P42336 whole entry E545A, canonical isoform): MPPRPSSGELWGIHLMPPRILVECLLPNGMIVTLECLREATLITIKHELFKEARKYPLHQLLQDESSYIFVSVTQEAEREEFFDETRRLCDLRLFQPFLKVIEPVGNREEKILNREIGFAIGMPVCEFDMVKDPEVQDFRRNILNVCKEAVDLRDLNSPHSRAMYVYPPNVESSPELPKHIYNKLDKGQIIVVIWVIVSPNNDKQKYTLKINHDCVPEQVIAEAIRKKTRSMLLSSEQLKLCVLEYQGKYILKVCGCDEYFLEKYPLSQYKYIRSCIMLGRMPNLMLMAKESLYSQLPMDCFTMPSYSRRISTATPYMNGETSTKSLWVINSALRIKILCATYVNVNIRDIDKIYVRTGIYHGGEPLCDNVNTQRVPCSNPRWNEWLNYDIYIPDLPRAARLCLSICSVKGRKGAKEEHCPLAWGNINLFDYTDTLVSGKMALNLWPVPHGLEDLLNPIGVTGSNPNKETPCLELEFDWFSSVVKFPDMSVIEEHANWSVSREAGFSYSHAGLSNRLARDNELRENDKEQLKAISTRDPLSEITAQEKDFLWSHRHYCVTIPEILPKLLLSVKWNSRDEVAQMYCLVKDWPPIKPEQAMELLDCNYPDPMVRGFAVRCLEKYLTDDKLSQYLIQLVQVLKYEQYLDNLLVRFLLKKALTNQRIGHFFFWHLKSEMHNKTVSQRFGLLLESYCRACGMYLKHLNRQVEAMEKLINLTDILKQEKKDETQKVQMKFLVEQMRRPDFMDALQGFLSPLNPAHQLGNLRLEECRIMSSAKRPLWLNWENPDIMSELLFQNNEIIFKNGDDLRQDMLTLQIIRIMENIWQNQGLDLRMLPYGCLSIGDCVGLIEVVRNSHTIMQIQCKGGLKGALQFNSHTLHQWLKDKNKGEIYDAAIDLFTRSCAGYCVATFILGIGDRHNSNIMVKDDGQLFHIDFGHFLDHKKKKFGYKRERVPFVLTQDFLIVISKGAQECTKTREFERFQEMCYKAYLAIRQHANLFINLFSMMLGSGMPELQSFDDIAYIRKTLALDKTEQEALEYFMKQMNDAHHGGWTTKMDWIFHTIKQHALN

[26] = target: Phosphatidylinositol 4,5-bisphosphate 3-kinase catalytic subunit beta isoform (Homo sapiens) (UniProt P42338); conditions: Compound concentration 1000.0 nM
[27] = target: Serine/threonine-protein kinase D2 (Homo sapiens) (UniProt Q9BZL6); conditions: Compound concentration 1000.0 nM
[28] = test system: Proto-oncogene tyrosine-protein kinase receptor Ret (Homo sapiens), P07949 [M918T]; conditions: Compound concentration 1000.0 nM
[29] = target: Receptor-interacting serine/threonine-protein kinase 1 (Homo sapiens) (UniProt Q13546); conditions: Compound concentration 1000.0 nM
[30] = target: Dual serine/threonine and tyrosine protein kinase (Homo sapiens) (UniProt Q6XUX3); conditions: Compound concentration 1000.0 nM
[31] = target: Ribosomal protein S6 kinase alpha-1 (Homo sapiens) (UniProt Q15418); conditions: Compound concentration 1000.0 nM
[32] = target: Serine/threonine-protein kinase TNNI3K (Homo sapiens) (UniProt Q59H18); conditions: Compound concentration 1000.0 nM
Chain of Serine/threonine-protein kinase TNNI3K (Homo sapiens) (Q59H18 whole entry): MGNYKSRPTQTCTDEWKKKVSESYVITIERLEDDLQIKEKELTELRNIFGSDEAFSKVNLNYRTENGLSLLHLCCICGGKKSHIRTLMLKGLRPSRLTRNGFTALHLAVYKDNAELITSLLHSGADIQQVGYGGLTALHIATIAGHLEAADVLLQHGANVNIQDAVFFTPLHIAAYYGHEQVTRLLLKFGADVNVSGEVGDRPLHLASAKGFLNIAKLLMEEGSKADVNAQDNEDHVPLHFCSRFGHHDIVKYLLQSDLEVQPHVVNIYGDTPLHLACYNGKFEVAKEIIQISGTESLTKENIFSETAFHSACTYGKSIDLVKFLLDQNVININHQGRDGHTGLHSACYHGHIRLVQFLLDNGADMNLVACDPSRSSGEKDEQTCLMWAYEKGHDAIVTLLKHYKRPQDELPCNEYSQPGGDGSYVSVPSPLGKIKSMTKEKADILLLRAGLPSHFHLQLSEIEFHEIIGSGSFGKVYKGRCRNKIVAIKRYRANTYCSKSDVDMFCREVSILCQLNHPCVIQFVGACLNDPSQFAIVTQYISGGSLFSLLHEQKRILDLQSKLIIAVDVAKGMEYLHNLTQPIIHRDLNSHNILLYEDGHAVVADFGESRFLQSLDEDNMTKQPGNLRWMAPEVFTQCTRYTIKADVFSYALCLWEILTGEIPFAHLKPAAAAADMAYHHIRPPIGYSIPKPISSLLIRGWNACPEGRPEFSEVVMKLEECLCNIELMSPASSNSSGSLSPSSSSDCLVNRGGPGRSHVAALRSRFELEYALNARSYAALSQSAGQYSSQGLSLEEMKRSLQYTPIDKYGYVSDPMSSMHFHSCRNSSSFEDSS

[33] = target: Serine/threonine-protein kinase 32C (Homo sapiens) (UniProt Q86UX6); conditions: Compound concentration 1000.0 nM
[34] = target: 5-hydroxytryptamine receptor 1D (Homo sapiens) (UniProt P28221); conditions: Compound concentration 10.0 uM
[35] = target: 5-hydroxytryptamine receptor 7 (Homo sapiens) (UniProt P34969); conditions: Compound concentration 10.0 uM
Chain of 5-hydroxytryptamine receptor 7 (Homo sapiens) (P34969 whole entry): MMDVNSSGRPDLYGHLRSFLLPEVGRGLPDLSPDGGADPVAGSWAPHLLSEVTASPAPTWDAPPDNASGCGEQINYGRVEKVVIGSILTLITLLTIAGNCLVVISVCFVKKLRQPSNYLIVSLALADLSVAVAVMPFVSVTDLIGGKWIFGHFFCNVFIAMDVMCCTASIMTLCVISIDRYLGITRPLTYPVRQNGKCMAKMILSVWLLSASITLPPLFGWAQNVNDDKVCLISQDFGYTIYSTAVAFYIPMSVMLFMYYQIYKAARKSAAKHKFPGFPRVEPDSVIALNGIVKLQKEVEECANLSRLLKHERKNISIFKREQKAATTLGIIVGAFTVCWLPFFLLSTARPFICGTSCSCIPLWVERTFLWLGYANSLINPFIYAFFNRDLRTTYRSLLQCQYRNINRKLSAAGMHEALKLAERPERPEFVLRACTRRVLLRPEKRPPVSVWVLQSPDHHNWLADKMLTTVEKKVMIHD

[36] = target: T1, D(4) dopamine receptor (Homo sapiens) (UniProt P21917); conditions: Compound concentration 10.0 uM
T1 sequence (whole entry): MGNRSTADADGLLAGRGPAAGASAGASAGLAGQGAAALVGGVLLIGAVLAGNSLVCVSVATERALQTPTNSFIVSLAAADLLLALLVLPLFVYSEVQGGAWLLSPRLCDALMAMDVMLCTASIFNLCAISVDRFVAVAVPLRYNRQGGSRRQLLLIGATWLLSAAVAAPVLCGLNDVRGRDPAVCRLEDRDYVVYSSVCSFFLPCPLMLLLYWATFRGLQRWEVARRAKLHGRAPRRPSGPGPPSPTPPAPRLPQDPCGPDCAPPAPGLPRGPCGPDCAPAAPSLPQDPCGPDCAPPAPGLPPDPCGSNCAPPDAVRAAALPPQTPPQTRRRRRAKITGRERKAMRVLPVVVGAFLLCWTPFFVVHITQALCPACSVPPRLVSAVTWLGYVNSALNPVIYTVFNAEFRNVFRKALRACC

[37] = target: Sodium-dependent dopamine transporter (Homo sapiens) (UniProt Q01959); conditions: Compound concentration 10.0 uM
[38] = target: Delta-type opioid receptor (Homo sapiens) (UniProt P41143); conditions: Compound concentration 10.0 uM
[39] = target: Histamine H3 receptor (Homo sapiens) (UniProt Q9Y5N1); conditions: Compound concentration 10.0 uM

| SMILES | residual activity [1] [%] | residual activity [2] [%] | residual activity [3] [%] | residual activity [4] [%] | residual activity [5] [%] | residual activity [6] [%] | residual activity [7] [%] | residual activity [8] [%] | residual activity [9] [%] | residual activity [10] [%] | residual activity [11] [%] | residual activity [12] [%] | residual activity [13] [%] | residual activity [14] [%] | residual activity [15] [%] | residual activity [16] [%] | residual activity [17] [%] | residual activity [18] [%] | residual activity [19] [%] | residual activity [20] [%] | also measured |
| --- | --- | --- | --- | --- | --- | --- | --- | --- | --- | --- | --- | --- | --- | --- | --- | --- | --- | --- | --- | --- | --- |
| CCS(=O)(=O)c1cc2cc(C[C@@](O)(CC(C)(C)c3ccc(F)cc3C(N)=O)C(F)(F)F)[nH]c2cn1 | 78 | 100 | 72 | 66 | 81 | 77 | 91 | 100 | 100 | 86 | 90 | 72 | 79 | 73 | 97 | 42 | 85 | 100 | 99 | 92 | residual activity [21]: 59%; residual activity [22]: 96%; residual activity [23]: 100%; residual activity [24]: 99%; residual activity [25]: 99%; residual activity [26]: 87%; residual activity [27]: 89%; residual activity [28]: 98%; residual activity [29]: 92%; residual activity [30]: 100%; residual activity [31]: 100%; residual activity [32]: 100%; residual activity [33]: 90%; inhibition [34]: 7.98%; inhibition [35]: 4.44%; inhibition [36]: 5.32%; inhibition [37]: 2.58%; inhibition [38]: -3.88%; inhibition [39]: 11.7% |
| CCS(=O)(=O)c1cc2cc(C[C@](O)(CC(C)(C)c3ccc(F)cc3C(N)=O)C(F)(F)F)[nH]c2cn1 | 95 | 100 | 100 | 86 | 100 | 100 | 100 | 97 | 100 | 100 | 100 | 100 | 95 | 100 | 100 | 100 | 92 | 100 | 99 | 100 | residual activity [21]: 88%; residual activity [22]: 100%; residual activity [23]: 100%; residual activity [24]: 100%; residual activity [25]: 100%; residual activity [26]: 98%; residual activity [27]: 96%; residual activity [28]: 100%; residual activity [29]: 100%; residual activity [30]: 86%; residual activity [31]: 100%; residual activity [32]: 80%; residual activity [33]: 100%; inhibition [34]: 5.54%; inhibition [35]: 4.98%; inhibition [36]: -7.41%; inhibition [37]: -8.67%; inhibition [38]: -2.58%; inhibition [39]: 11.7% |

— ChEMBL document CHEMBL4507277
